Measurements taken from patent US9974761B2, “Medications for deposition on biological surfaces” (The Procter & Gamble Company, priority 2014, dated 2018).

System: human TRPM8
Assay: TRPM8 Protocol-FLIPR Assay (intracellular Ca2+)
Assay type: cell-based
Details: for TRPM8 Time Course Activity 50 sec % of WS5 / TRPM8 Time Course Activity 3 min % of WS5 / TRPM8 Time Course Activity 5 min % of WS5 / TRPM8 Time Course Activity 10 min % of WS5: vs 30 uM WS-5; for TRPM8 Time Course Activity 3 min: fluorescence at 3 min; for TRPM8 Time Course Activity 5 min: fluorescence at 5 min; for TRPM8 Time Course Activity 10 min: fluorescence at 10 min
Procedure: To determine whether TRPM8 is activated, the intracellular calcium ion (Ca^2+) level was measured from transfected cells with the TRPM8 receptor sequence (SEQ ID NO: 3). HEK-293 (human embryonic kidney) cells stably transfected with human TRPM8 were grown in 15 ml growth medium (high glucose DMEM (Dulbecco's Modification of Eagle's Medium) supplemented with 10% FBS (fetal bovine serum), 100 ug/ml penicillin/streptomycin, 5 μg/ml blasticindin, and 100 μg/ml zeocin) in a 75 cm^2 flask for 3 days at 37° C. in a mammalian cell culture incubator set at 5% CO2 Cells were detached with addition of 2 ml of trypsin-EDTA buffer (GIBCO® 25200, Invitrogen, Grand Island, N.Y.) for about 2-3 min. Trypsin was inactivated by addition of 8 ml growth medium. Cells were transferred to a 50 ml tube and centrifuged at 850 rpm for 3 minutes to remove medium. After centrifugation, a pellet of cells was formed in the bottom of the tube separating them from the supernatant solution. The supernatant was discarded and the cell pellet was suspended in 1 ml of fresh growth medium to which 5 μl (12.5 μg) of Fluo-4 AM (Molecular Probes, Inc., Eugene, Oreg.) calcium indicator was added and incubated for 30 min with gentle shaking. Fluo-4 AM is a fluorescent dye used for quantifying cellular Ca^2+ concentrations in the 100 nM to 1 microM range. At the end of 30 minutes, 45 ml of assay buffer (1× HBSS (Hank's Balanced Salt Solution), 20 mM HEPES (4-(2-Hydroxyethyl)-1-piperazineethanesulfonic acid)) was added to wash cells and the resulting mixture was then centrifuged at 850 rpm for 3 minutes to remove excess buffer and Fluo-4 AM calcium indicator.
The pelleted cells were re-suspended in 10 ml assay buffer and 90 μl aliquots (˜50,000 cells) per well delivered to a 96-well assay plate containing 10 μl of test compounds (1 mM in assay buffer, […]) or buffer control and incubated at room temperature for 30 minutes. After 30 minutes, a plate was placed into a fluorometric imaging plate reader (FLIPR384 from Molecular Devices, Sunnyvale, Calif.) and basal fluorescence recorded (excitation wave length 488 nm and emission wave length 510 nm). Then 20 μl of […] of TRPM8 agonist WS5 coolant in the assay buffer was added and fluorescence recorded. For determining the direct effect of test compounds on TRPM8, fluorescence was measured immediately after addition of each compound (TABLES 2 and 3). Additional discussion of the FLIPR method can be found in Smart et al., Characterization using FLIPR of human vanilloid VR1 receptor pharmacology, European Journal of Pharmacology 417, 51-58 (2001) and Liu et al., Development and validation of a platelet calcium flux assay using a fluorescent imaging plate reader, Analytical Biochemistry 357, 216-224 (2006).
TRPM8 activation was determined by measuring intracellular calcium ion (Ca^2+) level from transfected cells with the TRPM8 receptor gene, as described in EXAMPLE 1, the results of which are shown in TABLES 4 and 5.

CC(C)[C@@H]1CC[C@@H](C)C[C@H]1C(=O)NCC(NC(=O)[C@@H](C)N)c1ccccc1 (single isomer, unassigned) [Compound 28 fraction 1]
TRPM8 Time Course Activity 50 sec % of WS5 (dose 6.1 nM): 8.8%
TRPM8 Time Course Activity 3 min % of WS5 (dose 6.1 nM): 36.5%
TRPM8 Time Course Activity 5 min % of WS5 (dose 6.1 nM): 46.7%
TRPM8 Time Course Activity 10 min % of WS5 (dose 6.1 nM): 56.1%
TRPM8 Time Course Activity 3 min (dose 6.1 nM): 3452.0
TRPM8 Time Course Activity 5 min (dose 6.1 nM): 4426.0
TRPM8 Time Course Activity 10 min (dose 6.1 nM): 5375.0
TRPM8 Time Course Activity 50 sec % of WS5 (dose 12.2 nM): 30.0%
TRPM8 Time Course Activity 3 min % of WS5 (dose 12.2 nM): 93.0%
TRPM8 Time Course Activity 5 min % of WS5 (dose 12.2 nM): 103.8%
TRPM8 Time Course Activity 10 min % of WS5 (dose 12.2 nM): 115.5%
TRPM8 Time Course Activity 3 min (dose 12.2 nM): 8783.0
TRPM8 Time Course Activity 5 min (dose 12.2 nM): 9830.0
TRPM8 Time Course Activity 10 min (dose 12.2 nM): 11065.0
TRPM8 Time Course Activity 50 sec % of WS5 (dose 24.4 nM): 19.2%
TRPM8 Time Course Activity 3 min % of WS5 (dose 24.4 nM): 67.8%
TRPM8 Time Course Activity 5 min % of WS5 (dose 24.4 nM): 80.2%
TRPM8 Time Course Activity 10 min % of WS5 (dose 24.4 nM): 92.7%
TRPM8 Time Course Activity 3 min (dose 24.4 nM): 6405.0
TRPM8 Time Course Activity 5 min (dose 24.4 nM): 7593.0
TRPM8 Time Course Activity 10 min (dose 24.4 nM): 8879.0
TRPM8 Time Course Activity 50 sec % of WS5 (dose 48.8 nM): 29.0%
TRPM8 Time Course Activity 3 min % of WS5 (dose 48.8 nM): 84.8%
TRPM8 Time Course Activity 5 min % of WS5 (dose 48.8 nM): 94.9%
TRPM8 Time Course Activity 10 min % of WS5 (dose 48.8 nM): 106.8%
TRPM8 Time Course Activity 3 min (dose 48.8 nM): 8017.0
TRPM8 Time Course Activity 5 min (dose 48.8 nM): 8983.0
TRPM8 Time Course Activity 10 min (dose 48.8 nM): 10224.0
TRPM8 Time Course Activity 50 sec % of WS5 (dose 97.6 nM): 39.4%
TRPM8 Time Course Activity 3 min % of WS5 (dose 97.6 nM): 103.1%
TRPM8 Time Course Activity 5 min % of WS5 (dose 97.6 nM): 113.1%
TRPM8 Time Course Activity 10 min % of WS5 (dose 97.6 nM): 125.4%
TRPM8 Time Course Activity 3 min (dose 97.6 nM): 9744.0
TRPM8 Time Course Activity 5 min (dose 97.6 nM): 10711.0
TRPM8 Time Course Activity 10 min (dose 97.6 nM): 12011.0
TRPM8 Time Course Activity 50 sec % of WS5 (dose 195 nM): 53.9%
TRPM8 Time Course Activity 3 min % of WS5 (dose 195 nM): 116.8%
TRPM8 Time Course Activity 5 min % of WS5 (dose 195 nM): 124.9%
TRPM8 Time Course Activity 10 min % of WS5 (dose 195 nM): 136.2%
TRPM8 Time Course Activity 3 min (dose 195 nM): 11037.0
TRPM8 Time Course Activity 5 min (dose 195 nM): 11824.0
TRPM8 Time Course Activity 10 min (dose 195 nM): 13046.0
TRPM8 Time Course Activity 3 min % of WS5 (dose 390 nM): 120.4%
TRPM8 Time Course Activity 5 min % of WS5 (dose 390 nM): 126.4%
TRPM8 Time Course Activity 10 min % of WS5 (dose 390 nM): 137.0%
TRPM8 Time Course Activity 3 min (dose 390 nM): 11373.0
TRPM8 Time Course Activity 5 min (dose 390 nM): 11968.0
TRPM8 Time Course Activity 10 min (dose 390 nM): 13121.0
TRPM8 Time Course Activity 3 min % of WS5 (dose 781 nM): 128.9%
TRPM8 Time Course Activity 5 min % of WS5 (dose 781 nM): 133.3%
TRPM8 Time Course Activity 10 min % of WS5 (dose 781 nM): 142.7%
TRPM8 Time Course Activity 3 min (dose 781 nM): 12182.0
TRPM8 Time Course Activity 5 min (dose 781 nM): 12618.0
TRPM8 Time Course Activity 10 min (dose 781 nM): 13661.0
TRPM8 Time Course Activity 3 min % of WS5 (dose 1.563 uM): 128.4%
TRPM8 Time Course Activity 5 min % of WS5 (dose 1.563 uM): 132.0%
TRPM8 Time Course Activity 10 min % of WS5 (dose 1.563 uM): 140.4%
TRPM8 Time Course Activity 3 min (dose 1.563 uM): 12135.0
TRPM8 Time Course Activity 5 min (dose 1.563 uM): 12499.0
TRPM8 Time Course Activity 10 min (dose 1.563 uM): 13440.0
TRPM8 Time Course Activity 3 min % of WS5 (dose 3.125 uM): 133.4%
TRPM8 Time Course Activity 5 min % of WS5 (dose 3.125 uM): 136.7%
TRPM8 Time Course Activity 10 min % of WS5 (dose 3.125 uM): 144.6%
TRPM8 Time Course Activity 3 min (dose 3.125 uM): 12602.0
TRPM8 Time Course Activity 5 min (dose 3.125 uM): 12939.0
TRPM8 Time Course Activity 10 min (dose 3.125 uM): 13850.0
TRPM8 Time Course Activity 3 min % of WS5 (dose 6.25 uM): 135.2%
TRPM8 Time Course Activity 5 min % of WS5 (dose 6.25 uM): 138.3%
TRPM8 Time Course Activity 10 min % of WS5 (dose 6.25 uM): 147.3%
TRPM8 Time Course Activity 3 min (dose 6.25 uM): 12775.0
TRPM8 Time Course Activity 5 min (dose 6.25 uM): 13098.0
TRPM8 Time Course Activity 10 min (dose 6.25 uM): 14102.0
TRPM8 Time Course Activity 3 min % of WS5 (dose 12.5 uM): 133.3%
TRPM8 Time Course Activity 5 min % of WS5 (dose 12.5 uM): 137.3%
TRPM8 Time Course Activity 10 min % of WS5 (dose 12.5 uM): 145.6%
TRPM8 Time Course Activity 3 min (dose 12.5 uM): 12591.0
TRPM8 Time Course Activity 5 min (dose 12.5 uM): 12997.0
TRPM8 Time Course Activity 10 min (dose 12.5 uM): 13947.0
TRPM8 Time Course Activity 3 min % of WS5 (dose 25 uM): 137.8%
TRPM8 Time Course Activity 5 min % of WS5 (dose 25 uM): 141.0%
TRPM8 Time Course Activity 10 min % of WS5 (dose 25 uM): 149.8%
TRPM8 Time Course Activity 3 min (dose 25 uM): 13020.0
TRPM8 Time Course Activity 5 min (dose 25 uM): 13354.0
TRPM8 Time Course Activity 10 min (dose 25 uM): 14341.0
TRPM8 Time Course Activity 3 min % of WS5 (dose 50 uM): 130.1%
TRPM8 Time Course Activity 5 min % of WS5 (dose 50 uM): 133.7%
TRPM8 Time Course Activity 10 min % of WS5 (dose 50 uM): 137.5%
TRPM8 Time Course Activity 3 min (dose 50 uM): 12295.0
TRPM8 Time Course Activity 5 min (dose 50 uM): 12654.0
TRPM8 Time Course Activity 10 min (dose 50 uM): 13169.0
TRPM8 Time Course Activity 3 min % of WS5 (dose 100 uM): 132.5%
TRPM8 Time Course Activity 5 min % of WS5 (dose 100 uM): 135.7%
TRPM8 Time Course Activity 10 min % of WS5 (dose 100 uM): 137.7%
TRPM8 Time Course Activity 3 min (dose 100 uM): 12520.0
TRPM8 Time Course Activity 5 min (dose 100 uM): 12844.0
TRPM8 Time Course Activity 10 min (dose 100 uM): 13187.0
